In ChEMBL document CHEMBL1133932, “Synthesis and biological evaluation of L- and D-configurations of 2',3'-dideoxy-4'-C-methyl-3'-oxacytidine analogues” (Bioorg Med Chem Lett, 2001):

How the values were obtained:
Assay type in all cases: functional, cell-based
L1210 [1] = assay: In vitro inhibition of L1210 leukemia cell replication by the compound; settings: Mus musculus
P388 = assay: In vitro inhibition of P388 leukemia cell replication by the compound; settings: Mus musculus
B16-F10 = assay: In vitro inhibition of B16F10 melanoma cell replication by the compound; settings: Mus musculus
CCRF-CEM = assay: In vitro inhibition of CCRF-CEM lymphoblastic leukemia cell replication by the compound; settings: Homo sapiens
L1210 [2] = assay: In vitro inhibition of L1210 leukemia cell replication by the compound at; settings: Mus musculus

IC50 (L1210 [1])	IC50 (P388)	IC50 (B16-F10)	IC50 (CCRF-CEM)	IC50 (L1210 [2])	Compound
> 100 µM	> 100 µM	> 100 µM	> 100 µM	–	CC1(CO)OC[C@@H](n2cc(F)c(N)nc2=O)O1 (some centres not stated)
–	> 100 µM	> 100 µM	> 100 µM	> 100 µM	CC1(CO)OCC(n2cc(F)c(N)nc2=O)O1 (configuration not stated)
> 100 µM	50 µM	> 100 µM	> 100 µM	–	C[C@]1(CO)OCC(n2cc(F)c(N)nc2=O)O1 (single isomer, unassigned)

More lines, now with the values behind:

Compound	IC50 (L1210 [1])	IC50 (P388)	IC50 (B16-F10)	IC50 (CCRF-CEM)	IC50 (L1210 [2])
C[C@]1(CO)OCC(n2cc(F)c(N)nc2=O)O1 (some centres not stated)	> 100 µM	> 100 µM	> 100 µM	> 100 µM	–
CC1(CO)OCC(n2ccc(N)nc2=O)O1 (configuration not stated)	50 µM	10 µM	100 µM	30 µM	–
CC1(CO)OC[C@@H](n2ccc(N)nc2=O)O1 (some centres not stated)	> 100 µM	> 100 µM	> 100 µM	> 100 µM	–
C[C@]1(CO)OCC(n2ccc(N)nc2=O)O1 (some centres not stated)	> 100 µM	> 100 µM	100 µM	> 100 µM	–
C[C@]1(CO)OCC(n2ccc(N)nc2=O)O1 (single isomer, unassigned)	45 µM	5 µM	100 µM	30 µM	–
